Measurements from ChEMBL document CHEMBL1201862, “PubChem BioAssay data set” (2004).
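Grown in 96-well plates, cells were treated for 48 hours with each compound at five concentrations. Insufficient inhibition: endpoint recorded as highest concentration tested. GI50 marks 50% less growth.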 Activity calls are given as the source filed them. Cut-off read from the data, not from the text of the source: active = GI50 up to about 1.1 µM and inactive = higher.

Key:
Test in all cases: DTP human tumour cell line panel, 48 h
[1] = test system: A549
[2] = test system: OVCAR-5
[3] = test system: CAKI-1
[4] = test system: UACC-62
[5] = test system: ACHN
[6] = test system: HCT-116
[7] = test system: SNB-19
[8] = test system: SNB-75
[9] = test system: SK-OV-3
[10] = test system: HCT-15
[11] = test system: TK-10
[12] = test system: OVCAR-4
[13] = test system: RPMI-8226
[14] = test system: CCRF-CEM
[15] = test system: HT-29
[16] = test system: NCI-H460
[17] = test system: SR
[18] = test system: SF-268

Row | SMILES | GI50 [1] | GI50 [2] | GI50 [3] | GI50 [4] | GI50 [5] | GI50 [6] | GI50 [7] | GI50 [8] | GI50 [9] | GI50 [10] | GI50 [11] | GI50 [12] | GI50 [13] | GI50 [14] | GI50 [15] | GI50 [16] | GI50 [17] | GI50 [18]
1 | COc1ccc(C2=C(Cl)c3cc(OC)c(OC)cc3C2Cl)cc1OC (stereo not given) | 19.5 µM (inactive) | 16.3 µM (inactive) | 14.7 µM (inactive) | 15.4 µM (inactive) | 16.6 µM (inactive) | 15.2 µM (inactive) | 15.9 µM (inactive) | 13.6 µM (inactive) | 32.1 µM (inactive) | 18.2 µM | 19.4 µM (inactive) | 18.2 µM (inactive) | 10.2 µM (inactive) | 4.32 µM (inactive) | 16.3 µM (inactive) | 16.5 µM (inactive) |  | 
2 | CC(=O)N1c2ccccc2C2=CC3C4C(=O)N(c5ccccc5)C(=O)C4C21C1C(=O)N(c2ccccc2)C(=O)C31 (stereo not given) | 32.4 µM (inactive) | 55.1 µM (inactive) | 48.3 µM (inactive) | 30.6 µM (inactive) | 31 µM (inactive) | 3.83 µM (inactive) | 16.4 µM (inactive) | 31.1 µM (inactive) | 23.1 µM (inactive) | 17.1 µM | > 100 µM (inactive) |  |  | 16.2 µM (inactive) | 36.9 µM (inactive) | 16.8 µM (inactive) | 32.5 µM (inactive) | 17.3 µM (inactive)
3 | COc1cc(CNc2nc3ccc(C(F)(F)F)cc3nc2-c2ccccc2)cc(OC)c1OC | 20 µM (inactive) | > 100 µM (inactive) | 14.3 µM (inactive) | 93.1 µM (inactive) |  | 15.4 µM (inactive) | 65.8 µM (inactive) | 8.38 µM (inactive) | 7.18 µM (inactive) | 25.4 µM | 27.1 µM (inactive) | 19.4 µM (inactive) | 6.11 µM (inactive) | 15.3 µM (inactive) | 32.9 µM (inactive) | 34.1 µM (inactive) |  | 19.5 µM (inactive)
4 | NC(=O)CN(CC(N)=O)C(N)=O | > 100 µM (inactive) | > 100 µM (inactive) | > 100 µM (inactive) | > 100 µM (inactive) | > 100 µM (inactive) | > 100 µM (inactive) | > 100 µM (inactive) | 23 µM (inactive) | > 100 µM (inactive) | > 100 µM | > 100 µM (inactive) | > 100 µM (inactive) | > 100 µM (inactive) | > 100 µM (inactive) | > 100 µM (inactive) | > 100 µM (inactive) |  | > 100 µM (inactive)
5 | COc1cc(Br)c(C2OCCCO2)cc1OCc1ccccc1 | 73.5 µM (inactive) | > 100 µM (inactive) |  | 73.5 µM (inactive) | 37.9 µM (inactive) | 39.7 µM (inactive) | > 100 µM (inactive) | > 100 µM (inactive) | > 100 µM (inactive) | 61.1 µM | > 100 µM (inactive) | 69.5 µM (inactive) | 52.8 µM (inactive) | 94.2 µM (inactive) | > 100 µM (inactive) | 55.7 µM (inactive) |  | 39 µM (inactive)
6 | O=S(=O)(/C=C/CS(=O)(=O)c1ccccc1)c1ccccc1 | 22.4 µM (inactive) | 47.1 µM (inactive) |  | 21.5 µM (inactive) | 53.3 µM (inactive) | 19.1 µM (inactive) | 34.7 µM (inactive) | 36.1 µM (inactive) | 29.3 µM (inactive) | 17.5 µM | 43.7 µM (inactive) | 35.6 µM (inactive) | 18.8 µM (inactive) | 36.1 µM (inactive) | 37.8 µM (inactive) | 21.9 µM (inactive) | 1.66 µM (inactive) | 26.9 µM (inactive)
7 | O=C1c2ccncc2C(=O)c2c(O)ccc(O)c21 | 5.48 µM (inactive) | 16 µM (inactive) | > 10 µM (inactive) | 3.12 µM (inactive) | 4.27 µM (inactive) | 2.91 µM (inactive) | 12.4 µM (inactive) | 23.6 µM (inactive) |  | 4.52 µM | 27.5 µM (inactive) | 11.1 µM (inactive) | 5.16 µM (inactive) | 4.33 µM (inactive) | 3.07 µM (inactive) | 11.4 µM (inactive) | 11 µM (inactive) | 11.1 µM (inactive)
8 | C1CSCCSCCCS[C@@H]2CCCCC2SC1 (stereo not given in full) | > 100 µM (inactive) | > 100 µM (inactive) | > 100 µM (inactive) | > 100 µM (inactive) | > 100 µM (inactive) | > 100 µM (inactive) | > 100 µM (inactive) | > 100 µM (inactive) | > 100 µM (inactive) | 15.4 µM | > 100 µM (inactive) | > 100 µM (inactive) | 21 µM (inactive) | 20.8 µM (inactive) | > 100 µM (inactive) | 44.1 µM (inactive) |  | > 100 µM (inactive)
9 | O=C(NCCCN1CCN(CCCNC(=O)c2cnc3ccccc3n2)CC1)c1cnc2ccccc2n1 | > 100 µM (inactive) |  | > 100 µM (inactive) | > 100 µM (inactive) | 74.1 µM (inactive) | 44.8 µM (inactive) | > 100 µM (inactive) | > 100 µM (inactive) | > 100 µM (inactive) | > 100 µM |  | > 100 µM (inactive) | > 100 µM (inactive) | > 100 µM (inactive) | 88.3 µM (inactive) | > 100 µM (inactive) |  | > 100 µM (inactive)
10 | COc1ccc(C(C#N)NNc2nc(C)cc(O)n2)cc1OC (stereo not given) | > 100 µM (inactive) | > 100 µM (inactive) | > 100 µM (inactive) | > 100 µM (inactive) | > 100 µM (inactive) | > 100 µM (inactive) |  | 71.9 µM (inactive) | > 100 µM (inactive) | > 100 µM | > 100 µM (inactive) | > 100 µM (inactive) | > 100 µM (inactive) | > 100 µM (inactive) | > 100 µM (inactive) | > 100 µM (inactive) | > 100 µM (inactive) | > 100 µM (inactive)
11 | O=C1O[C@@H](c2ccccc2)C[C@@H]1CN1CCOCC1 | > 100 µM (inactive) | > 100 µM (inactive) | 65.5 µM (inactive) | > 100 µM (inactive) | > 100 µM (inactive) |  |  | > 100 µM (inactive) | > 100 µM (inactive) | > 100 µM | > 100 µM (inactive) | > 100 µM (inactive) | 59.4 µM (inactive) | > 100 µM (inactive) | > 100 µM (inactive) | > 100 µM (inactive) |  | > 100 µM (inactive)
12 | O=C1N/C(=C\[N+](=O)[O-])c2ccccc21 | > 100 µM (inactive) | > 100 µM (inactive) |  | > 100 µM (inactive) | > 100 µM (inactive) | > 100 µM (inactive) | > 100 µM (inactive) | 25.9 µM (inactive) | > 100 µM (inactive) | > 100 µM | > 100 µM (inactive) | > 100 µM (inactive) | > 100 µM (inactive) | > 100 µM (inactive) | > 100 µM (inactive) | > 100 µM (inactive) | > 100 µM (inactive) | > 100 µM (inactive)
13 | CCCN(CCCCC(NC(C)=O)C(=O)NCc1ccccc1)C(=O)NCCCl (stereo not given) | > 100 µM (inactive) |  | > 100 µM (inactive) | > 100 µM (inactive) | > 100 µM (inactive) | 59.2 µM (inactive) | > 100 µM (inactive) | > 100 µM (inactive) |  | > 100 µM | > 100 µM (inactive) | > 100 µM (inactive) | > 100 µM (inactive) | > 100 µM (inactive) | > 100 µM (inactive) | > 100 µM (inactive) | > 100 µM (inactive) | > 100 µM (inactive)
14 | COc1cc2cc3c4c(cc(OC)c(OC)c4c2cc1OC)CCN3C(=O)CCC(=O)NCCCN(C)C | > 100 µM (inactive) |  | > 100 µM (inactive) | 47.6 µM (inactive) | > 100 µM (inactive) | 43.1 µM (inactive) | > 100 µM (inactive) | 10.3 µM (inactive) | 46.2 µM (inactive) | > 100 µM | > 100 µM (inactive) | > 100 µM (inactive) | 38.5 µM (inactive) | 29.2 µM (inactive) | 22.6 µM (inactive) | 33.1 µM (inactive) | 25.2 µM (inactive) | > 100 µM (inactive)
15 | CC(=O)O[C@H]1CCC2[C@@H]3CCC4Nc5c(cnn5-c5ccccc5)C[C@]4(C)C3CC[C@@]21C (stereo not given in full) | 17.5 µM (inactive) | 17.4 µM (inactive) | 3.2 µM (inactive) | 10.4 µM (inactive) | 14.6 µM (inactive) | 14.3 µM (inactive) | 14.5 µM (inactive) | 4.01 µM (inactive) | 18.7 µM (inactive) | 13.2 µM | 19.2 µM (inactive) | 21.4 µM (inactive) | 4.2 µM (inactive) | 7.08 µM (inactive) | 8.24 µM (inactive) | 15.8 µM (inactive) |  | 32.5 µM (inactive)
16 | CC1CCC2(C)C(CC=C(C=O)C2(O)C=O)C12CO2 (stereo not given) | 10.4 µM (inactive) | 2.73 µM (inactive) | 2.96 µM (inactive) | 1.64 µM (inactive) | 1.76 µM (inactive) | 1.49 µM (inactive) | 9.66 µM (inactive) |  | 3.27 µM (inactive) | 2.14 µM | 1.97 µM (inactive) | 2.23 µM (inactive) | 2.15 µM (inactive) | 1.26 µM (inactive) | 2.55 µM (inactive) | 2.57 µM (inactive) | 1.71 µM (inactive) | 4.25 µM (inactive)
17 | CCc1ccccc1-n1c2nc(=O)n(C)c(=O)c-2nc2ccccc21 | 8.24 µM (inactive) | 20 µM (inactive) | 20 µM (inactive) | 2.2 µM (inactive) | 3.92 µM (inactive) | 12.6 µM (inactive) | 10.8 µM (inactive) | 14.2 µM (inactive) | 40.2 µM (inactive) | 10 µM | 8.95 µM (inactive) | 4.89 µM (inactive) | 12.6 µM (inactive) | 11.2 µM (inactive) | 3.63 µM (inactive) | 4.55 µM (inactive) |  | 11 µM (inactive)
